Data as given in DBAASP.
Values after ≈ are worked out from the molar mass of the structure shown. Values joined by “and” are separate entries in the source; they are usually repeats but may differ in a detail not shown here. Equal entries are not always repeated. Blank lines part the entries; values can stand above or below the compound they belong to.

Assays:
Test in all cases: ≥ marks a high value that may be exact or a test limit, other limits are often not marked, values filed in µg/mL are converted to µM
Micrococcus luteus A270 = system: Micrococcus luteus A270
[1] = system: Staphylococcus aureus PTCC 1442
Escherichia coli D22 = system: Escherichia coli D22
Aspergillus fumigatus = system: Aspergillus fumigatus
[2] = system: Pseudomonas aeruginosa PTCC 2834
[3] = system: Neurospora crassa CBS 327-54
[4] = system: Escherichia coli NCTC 10418
[5] = system: Escherichia coli ATCC 25922
[6] = system: Pseudomonas aeruginosa 5167
Staphylococcus aureus 75 = system: Staphylococcus aureus 75
[7] = system: Staphylococcus aureus 725
[8] = system: Staphylococcus aureus 113
[9] = system: Staphylococcus epidermidis ATCC 12228
[10] = system: Pseudomonas aeruginosa 1570
[11] = system: Staphylococcus aureus ATCC 33591
[12] = system: Staphylococcus aureus 936
[13] = system: Bacillus subtilis ATCC 23857
[14] = system: Staphylococcus aureus 794
[15] = system: Staphylococcus aureus ATCC 25923
Acinetobacter baumannii = system: Acinetobacter baumannii
[16] = system: Staphylococcus aureus NCTC 10788
[17] = system: Acinetobacter baumannii 9840
[18] = system: Pseudomonas aeruginosa ATCC 15692
[19] = system: Candida albicans NCPF 1467
[20] = system: Acinetobacter baumannii 97830
[21] = system: Salmonella enterica subsp. enterica serovar Typhimurium ATCC 14028
[22] = system: Bacillus anthracis Sterne 34F2
[23] = system: Pseudomonas aeruginosa CCARM 2109
[24] = system: Salmonella typhimurium KCTC 1926
[25] = system: Staphylococcus aureus KCTC 1621
[26] = system: Bacillus subtilis KCTC 3068
[27] = system: Bacillus subtilis ATCC 9372
[28] = system: Staphylococcus aureus CCARM 3001
[29] = system: Escherichia coli KCTC 1682
[30] = system: Pseudomonas aeruginosa KCTC 1637
[31] = system: Pseudomonas aeruginosa CCARM 2095
[32] = system: Pseudomonas aeruginosa CCARM 2092
[33] = system: Burkholderia thailandensis
[34] = system: Staphylococcus aureus CCARM 3089
[35] = system: Staphylococcus aureus CCARM 3543
[36] = system: Staphylococcus epidermidis KCTC 1917
[37] = system: Streptococcus mutans ATCC 25175
[38] = system: Actinomyces israelii ATCC 12102
[39] = system: Porphyromonas gingivalis ATCC 33277
[40] = system: Staphylococcus aureus CCARM 3090
[41] = system: Enterococcus faecalis ATCC 51299
[42] = system: Candida albicans ATCC 26790
[43] = system: Fusobacterium nucleatum NCTC 11326
[44] = system: Staphylococcus aureus CCARM 3095
[45] = system: Enterococcus faecium ATCC 51559
[46] = system: Pseudomonas putida GPp104
Cupriavidus necator H16 = system: Cupriavidus necator H16
Escherichia coli JM109 = system: Escherichia coli JM109
[47] = system: Escherichia coli BL21(DE3)

Compound: CC(C)C[C@H](NC(=O)[C@H](CC(C)C)NC(=O)[C@H](CCCCN)NC(=O)[C@H](CCCCN)NC(=O)[C@H](CC(C)C)NC(=O)[C@H](CC(C)C)NC(=O)[C@H](CCCCN)NC(=O)[C@H](CC(C)C)NC(=O)[C@@H](N)Cc1ccccc1)C(N)=O [FLKLLKKLL]
- MIC [4]: 14 µM (≈ 15.6 µg/mL)
- MIC [5]: 28.7 µM (≈ 32 µg/mL)
- MIC [6]: 14.3 µM (≈ 16 µg/mL)
- MIC (Staphylococcus aureus 75): 7.17 µM (≈ 7.99 µg/mL)
- MIC [7]: 7.17 µM (≈ 7.99 µg/mL)
- MIC [8]: 7.17 µM (≈ 7.99 µg/mL)
- MIC [9]: 14.3 µM (≈ 16 µg/mL)
- MIC [10]: 7.17 µM (≈ 7.99 µg/mL)
- MIC [11]: 7.17 µM and 14.3 µM
- MIC [12]: 7.17 µM (≈ 7.99 µg/mL)
- MIC [13]: 3.59 µM (≈ 4 µg/mL)
- MIC [14]: 14.3 µM (≈ 16 µg/mL)
- MIC [15]: 14.3 µM (≈ 16 µg/mL)
- MIC (Acinetobacter baumannii): 10.1 µM (≈ 11.3 µg/mL)
- MIC [16]: 7 µM (≈ 7.8 µg/mL)
- MIC [17]: 10.1 µM (≈ 11.3 µg/mL)
- MIC [18]: 7.17 µM (≈ 7.99 µg/mL)
- MIC [19]: 7 µM (≈ 7.8 µg/mL)
- MIC [20]: 7.17 µM (≈ 7.99 µg/mL)
- MIC [21]: 14.3 µM (≈ 16 µg/mL)

Compound: CC(C)[C@H](NC(=O)[C@H](CCCCN)NC(=O)[C@H](CCCN=C(N)N)NC(=O)[C@H](CCCCN)NC(=O)[C@H](CCCCN)NC(=O)[C@H](CCCCN)NC(=O)[C@@H]1CCCN1C(=O)[C@H](CCC(N)=O)NC(=O)[C@H](CO)NC(=O)[C@H](Cc1c[nH]c2ccccc12)NC(=O)[C@H](CCCCN)NC(=O)[C@@H](NC(=O)[C@H](Cc1c[nH]c2ccccc12)NC(=O)[C@H](Cc1c[nH]c2ccccc12)NC(=O)[C@@H](NC(=O)[C@H](CCCCN)NC(=O)[C@H](Cc1c[nH]c2ccccc12)NC(=O)[C@H](Cc1c[nH]c2ccccc12)NC(=O)[C@@H](NC(=O)[C@H](CCCCN)NC(=O)[C@@H](N)CCCCN)[C@@H](C)O)[C@@H](C)O)[C@@H](C)O)C(=O)O [KKTWWKTWWTKWSQPKKKRKV]
- MIC [22]: ≥ 59 µM
- MIC [23]: 8 µM (≈ 22.8 µg/mL)
- MIC [24]: 1.41 µM (≈ 4.02 µg/mL)
- MIC [25]: 2 µM (≈ 5.69 µg/mL)
- MIC [26]: 2 µM (≈ 5.69 µg/mL)
- MIC [27]: 3.3 µM (≈ 9.39 µg/mL)
- MIC [28]: 2 µM (≈ 5.69 µg/mL)
- MIC [29]: 2 µM (≈ 5.69 µg/mL)
- MIC [30]: 2.83 µM (≈ 8.05 µg/mL)
- MIC [31]: 8 µM (≈ 22.8 µg/mL)
- MIC [32]: 8 µM (≈ 22.8 µg/mL)
- MIC [33]: ≥ 100 µM
- MIC [34]: 2 µM (≈ 5.69 µg/mL)
- MIC [35]: 1 µM (≈ 2.85 µg/mL)
- MIC [36]: 1.41 µM (≈ 4.02 µg/mL)

Compound: CC[C@H](C)[C@H](NC(=O)[C@H](CC(C)C)NC(=O)[C@H](CCCCN)NC(=O)[C@@H](NC(=O)[C@@H](NC(=O)[C@H](CCCN=C(N)N)NC(=O)[C@@H](N)CCCCN)[C@@H](C)CC)C(C)C)C(=O)N[C@@H](CC(C)C)C(=O)N[C@@H](CCCCN)C(=O)N[C@@H](Cc1c[nH]c2ccccc12)C(=O)N[C@@H](CC(C)C)C(=O)N[C@@H](CCCN=C(N)N)C(N)=O [KRIVKLILKWLR]
- MIC [23]: 8 µM (≈ 12.5 µg/mL)
- MIC [24]: 2.83 µM (≈ 4.43 µg/mL)
- MIC [37]: 2.5 µM (≈ 3.91 µg/mL)
- MIC [26]: 5.66 µM (≈ 8.85 µg/mL)
- MIC [38]: 2.5 µM (≈ 3.91 µg/mL)
- MIC [39]: 2.5 µM (≈ 3.91 µg/mL)
- MIC [40]: 8 µM (≈ 12.5 µg/mL)
- MIC [41]: ≥ 39.9 µM
- MIC [29]: 8 µM (≈ 12.5 µg/mL)
- MIC [30]: 8 µM (≈ 12.5 µg/mL)
- MIC [31]: 16 µM (≈ 25 µg/mL)
- MIC [42]: 9.97 µM (≈ 15.6 µg/mL)
- MIC [43]: 4.99 µM (≈ 7.81 µg/mL)
- MIC [34]: 4 µM (≈ 6.26 µg/mL)
- MIC [44]: 4 µM (≈ 6.26 µg/mL)
- MIC [36]: 2 µM (≈ 3.13 µg/mL)
- MIC [45]: 4 µM (≈ 6.26 µg/mL)

Results, then the compound that gave them:

- MIC (Micrococcus luteus A270): 15 µM (≈ 34.9 µg/mL)
- MIC [1]: ≥ 43 µM
- MIC (Escherichia coli D22): ≥ 150 µM
- MIC (Aspergillus fumigatus): ≥ 80 µM
- MIC [2]: 20.6 µM (≈ 48 µg/mL)
- MIC [3]: ≥ 50 µM
Compound: CSCC[C@H](NC(=O)[C@H](CO)NC(=O)[C@@H](N)CO)C(=O)N[C@@H](CCCCN)C(=O)N[C@@H](CC(C)C)C(=O)N[C@@H](CO)C(=O)N[C@@H](Cc1ccccc1)C(=O)N[C@@H](CCCN=C(N)N)C(=O)N[C@@H](C)C(=O)N[C@@H](CCCN=C(N)N)C(=O)N[C@@H](C)C(=O)N[C@@H](Cc1ccc(O)cc1)C(=O)NCC(=O)N[C@@H](Cc1ccccc1)C(=O)N[C@@H](CCCN=C(N)N)C(=O)NCC(=O)N1CCC[C@H]1C(=O)NCC(=O)N1CCC[C@H]1C(=O)N[C@@H](CCC(N)=O)C(=O)N[C@@H](CC(C)C)C(=O)O [SSMKLSFRARAYGFRGPGPQL]

- MIC [46]: 6.25 µM (≈ 13.7 µg/mL)
- MIC (Cupriavidus necator H16): 25 µM (≈ 54.8 µg/mL)
- MIC (Escherichia coli JM109): 6.25 µM (≈ 13.7 µg/mL)
- MIC [47]: 0.313 µM (≈ 0.686 µg/mL)
Compound: CC[C@H](C)[C@H](NC(=O)[C@H](Cc1ccc(O)cc1)NC(=O)[C@@H](NC(=O)[C@@H]1CCCN1C(=O)[C@H](CCCN=C(N)N)NC(=O)[C@@H]1CCCN1C(=O)[C@H](CC(N)=O)NC(=O)[C@@H](N)CCCN=C(N)N)C(C)C)C(=O)N1CCC[C@H]1C(=O)N[C@@H](CCC(N)=O)C(=O)N1CCC[C@H]1C(=O)N[C@@H](CCCN=C(N)N)C(=O)N1CCC[C@H]1C(=O)N1CCC[C@H]1C(=O)N[C@@H](Cc1cnc[nH]1)C(=O)N1CCC[C@H]1C(=O)N[C@@H](CCCN=C(N)N)C(=O)N[C@@H](CC(C)C)C(=O)O [RNPRPVYIPQPRPPHPRL]
